These results are taken from EP0719251B1, “BICYCLO (2.2.2) OCTANE DERIVATIVES CHOLECYSTOKININ AND/OR GASTRIN ANTAGONISTS” (JAMES BLACK FOUNDATION LIMITED, priority 1993, dated 1995).

Each structure is given as a SMILES string.

One assay has as its target T1, CCKB receptor (Mus musculus, UniProt P56481).
T1 construct: The whole brains from male mice (CD1 22-25g; Charles River) were removed; from tissue; host or cells: cerebral cortex membranes of male CD1 mice
T1 sequence (P56481 1-453): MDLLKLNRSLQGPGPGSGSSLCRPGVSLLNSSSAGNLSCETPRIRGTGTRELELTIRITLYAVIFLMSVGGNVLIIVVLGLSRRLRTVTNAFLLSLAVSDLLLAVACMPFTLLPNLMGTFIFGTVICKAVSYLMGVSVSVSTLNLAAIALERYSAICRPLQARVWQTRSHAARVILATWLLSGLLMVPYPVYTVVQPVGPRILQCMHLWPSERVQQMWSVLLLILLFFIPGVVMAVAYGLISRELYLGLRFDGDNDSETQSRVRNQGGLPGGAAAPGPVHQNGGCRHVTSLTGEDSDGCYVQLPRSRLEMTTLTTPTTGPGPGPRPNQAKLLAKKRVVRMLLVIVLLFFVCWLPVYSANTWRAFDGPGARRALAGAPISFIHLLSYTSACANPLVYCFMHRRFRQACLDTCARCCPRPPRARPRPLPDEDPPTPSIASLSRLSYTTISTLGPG
Put plainly: radioligand binding assay at the CCKB receptor in mouse cortical membranes. Particulars: [125I]-CCK8S 200pM, 150 min at 21 ± 3°C, read-out: CCKB pKi (converted). On the procedure:
The compounds of the examples were tested for binding at the CCKB receptor in mouse cortical membranes by means of a radioligand binding assay. The procedure was as follows:
The whole brains from male mice (CD1 22-25g; Charles River) were removed and placed in ice-cold buffer (pH7.2 @ 21 ± 3°C) of the following composition (mM); 10 HEPES, 130 NaCl, 4.7 KCl, 5 MgCl2, 1 EDTA and containing 0.25g.l^-1 bacitracin. The cortex was dissected, weighed and homogenised in 40ml ice-cold buffer using a Teflon-in-glass homogeniser. The homogenate was centrifuged at 39,800g for 20 min at 4°C, the supernatant discarded and the pellet resuspended by homogenisation in fresh buffer. The homogenate was recentrifuged (39,800g; 20 min @ 4°C) and the final pellet was resuspended in HEPES buffer to give a tissue concentration of 2mg.ml^-1(original wet weight).
The assay was terminated by rapid filtration through pre-soaked Whatman GF/B filters using a Brandell Cell harvester. The filters were washed (3 x 3ml) with ice-cold 50mM Tris-HCl (pH7.4 @ 4°C) and bound radioactivity determined by counting (1 min.) in a gamma-counter.

Another assay has as its target T2, CCKA (Cavia porcellus, UniProt Q63931).
T2 construct: The pancreatata were removed from male guinea-pigs (200-300g; Dunkin Hartley); from tissue; host or cells: pancreas membranes of male Dunkin Hartley guinea-pigs
T2 sequence (Q63931 1-430): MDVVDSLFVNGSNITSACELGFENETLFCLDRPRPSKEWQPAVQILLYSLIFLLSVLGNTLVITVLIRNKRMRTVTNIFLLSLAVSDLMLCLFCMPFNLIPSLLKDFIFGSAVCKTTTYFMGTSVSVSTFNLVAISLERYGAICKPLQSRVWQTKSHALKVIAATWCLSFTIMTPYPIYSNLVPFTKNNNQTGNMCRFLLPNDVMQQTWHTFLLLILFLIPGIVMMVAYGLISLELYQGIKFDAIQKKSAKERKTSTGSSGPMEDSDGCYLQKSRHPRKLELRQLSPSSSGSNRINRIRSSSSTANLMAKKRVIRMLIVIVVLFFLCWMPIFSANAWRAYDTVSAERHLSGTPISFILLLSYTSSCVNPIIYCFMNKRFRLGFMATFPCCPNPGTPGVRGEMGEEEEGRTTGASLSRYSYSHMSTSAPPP
Put plainly: CCKA binding assay in guinea-pig pancreas membranes. Particulars: [125I]-CCK8(S) 200pM, containing 0.375 µM PD134,308, read-out: CCKA pKi (converted). As for the experimental part: The compounds of the examples were also tested in a CCKÅ binding assay as follows:
The pancreatata were removed from male guinea-pigs (200-300g; Dunkin Hartley) and placed in ice-cold HEPES buffer (pH 7.2 @ 21 ± 3° ). The pancreatata were homogenised in 40 ml ice-cold HEPES buffer using a polytron (Brinkmann, PT10, setting 10) 4 x 1 second.
The homogenate was centrifuged at 39,800g for 15 min at 4°. The supernatant was discarded and the pellet re-suspended using a Teflon-in-glass homogeniser in 20 volumes of fresh buffer and recentrifuged as above. The final pellet was re-suspended using a Teflon-in-glass homogeniser to a tissue concentration of 1 mg.ml^-1 (original wet weight), and filtered through 500 µm pore-size Nytex mesh.
The membranes (400µl; containing 0.375 µM PD134,308) are incubated for 150 minutes at 21 ± 3° in a final volume of 0.5ml with HEPES buffer containing [^125I]-CCK8(S) (50µl; 200pM) and competing compound. Total and non-specific binding of [^125I]-CCK8 (S) are defined using 50µl of buffer and 50µl of 100nM L-364,718 respectively. The assay is terminated by rapid filtration through pre-soaked Whatman GF/B filters using a Brandell Cell Harvester. The filters were washed (3 x 3ml) with ice-cold 50mM Tris HCl (pH 7.4 at 4° ) and bound radioactivity is determined by counting (1 min) in a gamma counter.

The target in a further assay is T3, gastrin (Rattus norvegicus, UniProt P30553).
T3 construct: The stomach was excised and flushed with ca. 1 ml of unbuffered physiological saline solution; from tissue; host or cells: isolated whole stomach of immature rats (33-50 g, ca. 21 days old)
T3 sequence (P30553 1-452): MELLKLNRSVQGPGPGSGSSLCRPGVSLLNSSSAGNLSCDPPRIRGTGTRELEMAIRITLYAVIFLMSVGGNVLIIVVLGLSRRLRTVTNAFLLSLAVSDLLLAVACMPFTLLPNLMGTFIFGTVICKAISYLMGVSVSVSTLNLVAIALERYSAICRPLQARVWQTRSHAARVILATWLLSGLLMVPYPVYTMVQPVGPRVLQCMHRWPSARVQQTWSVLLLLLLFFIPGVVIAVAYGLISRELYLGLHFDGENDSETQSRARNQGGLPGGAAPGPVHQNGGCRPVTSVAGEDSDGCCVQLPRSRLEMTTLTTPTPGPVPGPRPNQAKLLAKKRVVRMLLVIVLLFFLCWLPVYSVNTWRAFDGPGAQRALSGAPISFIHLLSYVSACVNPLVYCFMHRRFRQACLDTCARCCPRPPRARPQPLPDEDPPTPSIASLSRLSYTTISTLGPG
Put plainly: gastrin antagonist activity in an immature rat stomach assay. Particulars: isolated immature rat stomach, cumulative pentagastrin dose-response curves, acid secretion; read-out: Gastrin pKB (converted). As for the experimental part:
The compounds of the examples were also tested for gastrin antagonist activity in an immature rat stomach assay. The procedure was as follows: The oesophagus of immature rats (33-50 g, ca. 21 days old) was ligated at the level of the cardiac sphincter and the duodenal sphincter was cannulated. The stomach was excised and flushed with ca. 1 ml of unbuffered physiological saline solution. The fundus was punctured and cannulated. A further 4-5 ml of unbuffered solution was flushed through the stomach to ensure the preparation was not leaking. […] The stomach was continuously perfused at a rate of 1 ml min^-1 with unbuffered solution gassed with 100% O2 with the perfusate passing over an internally referenced pH-electrode fixed 12 cm above the stomach. After 120 min of stabilisation the drugs were added directly to the serosal solution in the organ bath and after a further 60 min cumulative pentagastrin dose-response curves were started.

In the case of `O=C(O)c1cc(NC(=O)[C@@H](Cc2ccccc2)NC(=O)C2C3c4ccccc4C(c4ccccc43)C2C(=O)NCC23CC4CC(CC(C4)C2)C3)cc(C(=O)O)c1` (single isomer, unassigned) [Example 3, cis-7-(1R-(3,5-dicarboxyphenylaminocarbonyl) -2-phenylethylaminocarbonyl)-8-(1-adamantanemethylaminocarbonyl) -2,3,5,6-dibenzobicyclo[2.2.2]octane], the Ki on CCKB receptor is 10 nM; on CCKA it was 2510 nM. Further, the Kb at gastrin is 126 nM.
For `O=C(O)c1cc(NC(=O)[C@@H](Cc2ccccc2)NC(=O)C2C3c4ccccc4C(c4ccccc43)C2C(=O)NCC23CC4CC(CC(C4)C2)C3)cc(C(=O)O)c1` (single isomer, unassigned) [Example 4, cis-7-(1R-(3,5-dicarboxyphenylaminocarbonyl)-2-phenylethylaminocarbonyl)-8-(1-adamantananethylaminocarbonyl) -2,3,5,6-dibenzobicyclo[2.2.2]octane] the same measures were 15.8 nM, 1260 nM and 15.8 nM.
For `O=C(O)c1cc(NC(=O)[C@H](Cc2cccs2)NC(=O)C2C3c4ccccc4C(c4ccccc43)C2C(=O)NCC23CC4CC(CC(C4)C2)C3)cc(C(=O)O)c1` (single isomer, unassigned) [Example 7, cis-7-(1S-(3,5-dicarboxyphenylaminocarbonyl) -2-(2-thiophenyl)ethylaminocarbonyl)-8-(1-adamantanemethylaminocarbonyl) -2,3,5,6-dibenzobicyclo[2.2.2]octane] the same measures were 50.1 nM, 501 nM and 251 nM.
Consider `O=C(O)c1cc(NC(=O)[C@H](Cc2ccc(F)cc2)NC(=O)C2C3c4ccccc4C(c4ccccc43)C2C(=O)NCC23CC4CC(CC(C4)C2)C3)cc(C(=O)O)c1` (single isomer, unassigned) [Example 8, cis-7-(1S-(3,5-dicarboxyphenylaminocarbonyl) -2-(4-fluorophenyl)-ethylaminocarbonyl)-8-(1-adamantane-methylaminocarbonyl)-2,3,5,6-dibenzobicyclo[2.2.2]octane], for which the Ki at CCKB receptor was 12.6 nM; at CCKA it was 1000 nM. At gastrin, the Kb is 7.94 nM.
For `O=C(O)c1cc(NC(=O)[C@H](Cc2ccc(F)cc2)NC(=O)C2C3c4ccccc4C(c4ccccc43)C2C(=O)NCC23CC4CC(CC(C4)C2)C3)cc(C(=O)O)c1` (single isomer, unassigned) [Example 9, cis-7-(1S-(3,5-dicarboxyphenylaminocarbonyl) -2-(4-fluorophenyl)ethylaminocarbonyl)-8-(1-adamantanemethylaminocarbonyl) -2,3,5,6-dibenzobicyclo[2.2.2]octane] the same measures were 50.1 nM, 398 nM and 20 nM.
For `O=C(O)c1cc(NC(=O)[C@H](Cc2ccc(Cl)cc2)NC(=O)C2C3c4ccccc4C(c4ccccc43)C2C(=O)NCC23CC4CC(CC(C4)C2)C3)cc(C(=O)O)c1` (single isomer, unassigned) [Example 10, cis-7-(1S-(3,5-dicarboxyphenylaminocarbonyl)-2-(4-chlorophenyl)-ethylaminocarbonyl)-8-(1-adamantanemethylaminocarbonyl) -2,3,5,6-dibenzobicyclo[2.2.2]octane] the same measures were 10 nM, 794 nM and 5.01 nM.
Turning to `O=C(O)c1cc(NC(=O)[C@H](Cc2ccc(Cl)cc2)NC(=O)C2C3c4ccccc4C(c4ccccc43)C2C(=O)NCC23CC4CC(CC(C4)C2)C3)cc(C(=O)O)c1` (single isomer, unassigned) [Example 11, cis-7-(1S-(3,5-dicarboxyphenylaminocarbonyl)-2-(4-chlorophenyl)ethylaminocarbonyl)-8-(1-adamantanemethylaminocarbonyl) -2,3,5,6-dibenzobicyclo[2.2.2]octane], the Ki on CCKB receptor is 251 nM; at CCKA it was 50.1 nM. At gastrin, the Kb is 100 nM.
For `COc1ccc(C[C@H](NC(=O)C2C3c4ccccc4C(c4ccccc43)C2C(=O)NCC23CC4CC(CC(C4)C2)C3)C(=O)Nc2cc(C(=O)O)cc(C(=O)O)c2)cc1` (single isomer, unassigned) [Example 12, cis-7-(1S-(3,5-dicarboxyphenylaminocarbonyl)-2-(4-methoxyphenyl) -ethylaminocarbonyl)-8-(1-adamantanemethylaminocarbonyl) -2,3,5,6-dibenzobicyclo[2.2.2]octane] the same measures were 100 nM, 1580 nM and 63.1 nM.
For `COc1ccc(C[C@H](NC(=O)C2C3c4ccccc4C(c4ccccc43)C2C(=O)NCC23CC4CC(CC(C4)C2)C3)C(=O)Nc2cc(C(=O)O)cc(C(=O)O)c2)cc1` (single isomer, unassigned) [Example 13, cis-7-(1S-(3,5-dicarboxyphenylaminocarbonyl) -2-(4-methoxyphenyl)ethylaminocarbonyl)-8-(1-adamantanemethylaminocarbonyl) -2,3,5,6-dibenzobicyclo[2.2.2]octane] the same measures were 501 nM, 2000 nM and 316 nM.
